# Data as given in patent US20250243343A1, “LUBRICANT COMPOSITION FOR PREPARING ETHYLENE-BASED POLYMER AND METHOD OF PREPARING ETHYLENE-BASED POLYMER USING THE SAME” (SK INNOVATION CO., LTD., priority 2024, published 2025).
# Experiments:
# [1] = Acrylic acid self-polymerization (time until PAA formation); settings: for Polymerization time: oil:stabilizer 100:0.5, AA:lubricant composition 1:1 by weight, 100° C.; for polymerization stability time / PAA formation inhibition effect (in words): Table 1
# Method: The reactor was heated to 100° C., followed by observing whether a self-polymer (PAA) was formed in the reactor every 10 minutes. As soon as the PAA was observed visually, the experiment was stopped and a polymerization time was recorded.
# [2] = Measurement of solubility of the oxidation stabilizer in white mineral oil (visual observation); settings: Table 1
# Method: A lubricant composition was prepared by mixing a white mineral oil and the oxidation stabilizer of Table 1 below in a weight ratio of 100:0.1.
# The lubricant composition was left for 1 hour and observed visually. If precipitation occurred or the lubricant composition discolored or became opaque, it was evaluated as “X.” When no precipitation occurred and the lubricant composition was colorless and transparent, it was evaluated as “O.”
# [3] = nitrogen atmosphere, PAA observed visually every 10 minutes
Compound,"Polymerization time [1, 3]",also measured
"CCc1cc(Cc2cc(CC)cc(C(C)(C)C)c2O)c(O)c(C(C)(C)C)c1 [B-10, 2,2′-Methylenebis(6-tert-butyl-4-ethylphenol)]",0.333 h,–
"CCCCCCCCOc1ccc(C(=O)c2ccccc2)c(O)c1 [B-18, 2-hydroxy-4-n-octyloxybenzophenone]",0.333 h,–
"COc1cc(C(C)(C)C)c(O)c(C(C)(C)C)c1 [A-2, 2,6-Di-tert-butyl-4-methoxyphenol]",23 h,–
CCCCCCCCSc1nc(Nc2cc(C(C)(C)C)c(O)c(C(C)(C)C)c2)nc(SCCCCCCCC)n1 [B-19],0.333 h,–
"CC(C)(C)CC(C)(C)c1cc(O)c(C(C)(C)CC(C)(C)C)cc1O [B-11, 2,5-Bis(1,1,3,3-tetramethylbutyl) hydroquinone]",2 h,–
CCCCCCCCSc1nc(Nc2cc(C(C)(C)C)c(O)c(C(C)(C)C)c2)nc(SCCCCCCCC)n1 [B-12],–,"Polymerization time ([1]; class symbol): — (When the PAA was formed within 10 minutes, it was evaluated as “-.”)"
"CC(C)(C)c1cc(C(=O)O)cc(C(C)(C)C)c1O [B-7, 3,5-Di-tert-butyl-4-hydroxybenzoic acid]",0.333 h,–
"COc1ccc(O)c(C(C)(C)C)c1 [A-1, Butylated hydroxyanisole]",>150 h,polymerization stability time / PAA formation inhibition effect (in words) [1]: greatly increased; solubility in the white mineral oil (in words) [2]: high
"CC(C)(C)c1cccc(C(C)(C)C)c1O [B-5, 2,6-Di-tert-butylphenol]",–,"Polymerization time ([1]; class symbol): — (When the PAA was formed within 10 minutes, it was evaluated as “-.”)"
"CCOP(=O)(Cc1cc(C(C)(C)C)c(O)c(C(C)(C)C)c1)OCC [B-8, Diethyl 3,5-Di-tert-butyl-4-hydroxybenzylphosphonate]",0.333 h,–
"CC(C)(C)c1cc(CCC(=O)OCCSCCOC(=O)CCc2cc(C(C)(C)C)c(O)c(C(C)(C)C)c2)cc(C(C)(C)C)c1O [B-13, 2,2″-Thiodiethylene Bis [3-(3,5-di-tert-butyl-4-hydroxyphenyl) propionate]]",–,"Polymerization time ([1]; class symbol): — (When the PAA was formed within 10 minutes, it was evaluated as “-.”)"
"CC(C)(C)c1cc(CO)cc(C(C)(C)C)c1O [B-6, 2,6-Di-tert-butyl-4-hydroxymethylphenol]",2 h,–
"Cc1c(C)c2c(c(C)c1O)CC[C@@](C)(CCC[C@H](C)CCC[C@H](C)CCCC(C)C)O2 [B-4, Vitamin E]",0.5 h,–
"COc1ccc(O)cc1 [B-2, 4-Methoxyphenol]",>150 h,solubility in the white mineral oil (in words) [2]: greatly decreased
"Cc1cc(C(C)(C)C)c(O)c(C(C)(C)C)c1 [B-1, Butylated hydroxytoluene]",2 h,polymerization stability time / PAA formation inhibition effect (in words) [1]: greatly reduced
"COc1ccc(O)c(C(C)(C)C)c1 [A-3, 3-tert-butyl-4-hydroxyanisole]",72 h,–
"CCC(C)(C)c1ccc(O)c(C(C)(C)CC)c1 [B-9, 2,4-Di-tert-amylphenol]",2 h,–
"CC(C)(C)c1cc(O)c(O)c(C(C)(C)C)c1 [B-17, 3,5-Di-tert-butylcatechol]",5 h,–
"c1ccc2c(c1)Nc1ccccc1S2 [B-3, Phenothiazine]",>150 h,solubility in the white mineral oil (in words) [2]: not substantially dissolved
bis(nonylphenyl)amine [B-16],0.667 h,–
"CCc1cc(C(C)(C)C)c(O)c(C(C)(C)C)c1 [B-14, 2,6-Di-tert-butyl-4-ethylphenol]",–,"Polymerization time ([1]; class symbol): — (When the PAA was formed within 10 minutes, it was evaluated as “-.”)"
